Data as given in article PMC6150216, “Oleanane-Type Saponins from the Roots of Ligulariopsis shichuana and Their α-Glucosidase Inhibitory Activities” (Molecules : A Journal of Synthetic Chemistry and Natural …, 2017).
Entries after “also recorded” stand apart in the source; their conditions may differ.

Assays:
[1] = biological target: yeast α-glucosidase; assay: α-Glucosidase inhibitory activity assay; format: biochemical; details: for IC50: compound concentration that inhibits α-glucosidase activity by 50%, acarbose positive control, read-out: IC50 against α-glucosidase; for α-glucosidase inhibitory activity (in words): qualitative statement
Description: α-Glucosidase inhibitory activity was examined by the method described by Omar et al..

[2] = system: glucose-loaded rats; set-up: method as in PMID 11237187; details: cited from earlier work

SMILES | IC50 [1] | effect on the incensement of serum glucose levels [2] | α-glucosidase inhibitory activity (in words) [1]
COC(=O)[C@H]1O[C@@H](O[C@H]2CC[C@]3(C)[C@H]4CC=C5[C@@H]6CC(C)(C)CC[C@]6(C)[C@@H](O)C[C@@]5(C)[C@]4(C)C[C@@H](O)[C@H]3C2(C)C)[C@H](O)[C@@H](O)[C@@H]1O [Compound 3, Ligushicoside C] | 105 ± 4.3 µM |  | 
COC(=O)[C@H]1O[C@@H](O[C@H]2CC[C@]3(C)[C@H]4CC=C5[C@@H]6CC(C)(C)CC[C@]6(CO)[C@@H](O)C[C@@]5(C)[C@]4(C)CC[C@H]3C2(C)C)[C@H](O)[C@@H](O)[C@@H]1O [Compound 5, Ligushicoside E] | 154 ± 11.2 µM |  | 
COC(=O)[C@H]1O[C@@H](O[C@H]2CC[C@]3(C)[C@H]4CC=C5[C@@H]6CC(C)(C)CC[C@]6(C(=O)O)CC[C@@]5(C)[C@]4(C)CC[C@H]3C2(C)C)[C@H](O)[C@@H](O)[C@@H]1O [Compound 8, calenduloside E 6′-methyl ester] | 134 ± 3.3 µM | significant effects | 
COC(=O)[C@H]1O[C@@H](O[C@H]2CC[C@]3(C)[C@H]4CC=C5[C@@H]6CC(C)(C)CC[C@]6(CO)[C@@H](O)C[C@@]5(C)[C@]4(C)C[C@@H](O)[C@H]3C2(C)C)[C@H](O)[C@@H](O)[C@@H]1O [Compound 4, Ligushicoside D] | 89.7 ± 5.1 µM |  | 

Compounds with a lower IC50 [1], results first:

IC50 [1] | SMILES | effect on the incensement of serum glucose levels [2] | α-glucosidase inhibitory activity (in words) [1]
57.6 ± 6.8 µM | CC1(C)CC[C@]2(C(=O)O)CC[C@]3(C)C(=CC[C@@H]4[C@@]5(C)CC[C@H](O[C@@H]6O[C@H](C(=O)O)[C@@H](O)[C@H](O)[C@H]6O)C(C)(C)[C@@H]5CC[C@]43C)[C@@H]2C1 [Compound 7, calenduloside E] | significant effects; also recorded: strongly inhibited | 
18.7 ± 1.7 µM | CC1(C)CC[C@]2(C=O)[C@@H](O)C[C@]3(C)C(=CC[C@@H]4[C@@]5(C)CC[C@H](O[C@@H]6O[C@H](C(=O)O)[C@@H](O)[C@H](O)[C@H]6O)C(C)(C)[C@@H]5CC[C@]43C)[C@@H]2C1 [Compound 1, Ligushicoside A] |  | excellent inhibitory activities; also recorded: excellent inhibitory activity
37.9 ± 3.6 µM | COC(=O)[C@H]1O[C@@H](O[C@H]2CC[C@]3(C)[C@H]4CC=C5[C@@H]6CC(C)(C)CC[C@]6(C=O)[C@@H](O)C[C@@]5(C)[C@]4(C)CC[C@H]3C2(C)C)[C@H](O)[C@@H](O)[C@@H]1O [Compound 2, Ligushicoside B] |  | excellent inhibitory activities; also recorded: excellent inhibitory activity
42.6 ± 5.9 µM | CC1(C)CC[C@]2(CO)[C@@H](O)C[C@]3(C)C(=CC[C@@H]4[C@@]5(C)CC[C@H](O[C@@H]6O[C@H](C(=O)O)[C@@H](O)[C@H](O)[C@H]6O)C(C)(C)[C@@H]5CC[C@]43C)[C@@H]2C1 [Compound 6, longispinogenin 3-O-β-D-glucuronopyranoside] |  | 
